Data taken from patent US9832999B1, “Bicyclic compounds as pest control agents” (BAYER CROPSCIENCE AKTIENGESELLSCHAFT, priority 2014, dated 2017).

The compounds below were run on Myzus persicae (assay: Myzus persicae - spray test). Conditions: foliar, 144 h, application rate 500 g/ha, after 6 days, Chinese cabbage leaf discs, all stages of green peach aphid, 100% = all aphids killed, read-out: efficacy.
Format: in vivo
Description: To produce further test concentrations, the formulation is diluted with emulsifier-containing water.
In the case of CNC(=O)c1cc2cn(-c3cnccn3)nc2cn1 [Compound 14], the pest or weed control at 500 g/ha is reported as 90%. Work on O=C(NC1CC1)c1cc2cn(-c3cccnc3)nc2cn1 [Compound 29] yielded a pest or weed control at 500 g/ha of 90%. With CNC(=O)c1cc2cn(-c3cncc(F)c3)nc2cn1 [Compound 19] the pest or weed control at 500 g/ha was 90%. O=C(NCC(F)F)c1cc2cn(-c3cccnc3)nc2cn1 [Compound 36] gave a pest or weed control at 500 g/ha of 90%. CN(C)C(=O)c1cc2cn(-c3cncc(F)c3)nc2cn1 [Compound 20] showed a pest or weed control at 500 g/ha of 90%. CCNC(=O)c1cc2cn(-c3cccnc3)nc2cn1 [Compound 31] gave a pest or weed control at 500 g/ha of 90%. CON(C)C(=O)c1cc2cn(-c3cccnc3)nc2cn1 [Compound 11] showed a pest or weed control at 500 g/ha of 90%. CON(C)C(=O)c1cc2cn(-c3cncc(F)c3)nc2cn1 [Compound 26] gave a pest or weed control at 500 g/ha of 90%.

Each compound was assayed on Musca domestica (assay: Musca domestica test). Conditions: application rate 100 ppm; after 2 days; adult houseflies; 100% = all flies killed.
Format: in vivo
Description: • Solvent: dimethyl sulfoxide
To produce a suitable preparation of active compound, 10 mg of active compound are mixed with 0.5 ml of dimethyl sulfoxide, and the concentrate is diluted with water to the desired concentration.
Vessels containing a sponge treated with sugar solution and the active compound formulation of the desired concentration are populated with 10 adult houseflies (Musca domestica).
After 2 days, the kill in % is determined. 100% means that all of the flies have been killed; 0% means that none of the flies have been killed.
With CNC(=O)c1cc2cn(-c3cnccn3)nc2cn1 [Compound 14] the “efficacy (kill)” value was 80%.
